{"source": "patent US20260137642A1", "about": "(CANCER PREVENTION PHARMACEUTICALS, INC., priority 2021, published 2026)", "assay": "Phase I/II trial in new onset T1D: adverse events judged possibly or probably related to drug", "type": "in vivo, human", "details": "daily oral; for Adverse events possibly or probably related to drug: Hematologic, Grade 1 Neutropenia: neutrophil count < lower limit of normal but above 1500/mm^3", "excerpt": "The primary efficacy measure was changes in pro-insulin to C-peptide ratios as a marker of β cell ER stress. The secondary objectives of the study were to elucidate the relationship between primary dose and markers of endoplasmic reticulum (ER) stress, polyamine concentrations, glycemic, and immunologic outcomes in persons with new onset T1D, and to characterize the dietary polyamine intake and urinary polyamine excretion of persons with recent-onset T1D. Secondary efficacy measures included other biomarkers of β cell stress, stimulated C-peptide values, and changes in T-cell subsets. This study was double-blind, placebo-controlled, 2:1 random assigned, phase I/II clinic trial for individuals with type 1 diabetes. The blinded dose-ranging study enrolled persons with new onset T1D with documented continued residual C-peptide production. […] After a 3 month wash-out period, the durability of effect was assessed. […] Males and females 12-40 years of age with a clinical diagnosis of T1D within 2-8 months of the time of visit 2; 2. […] Positive for any one of the following diabetes-related autoantibodies (mIAA, GADA, IA-2A, or ZnT8A); 4. Treatment naïve of any immunomodulatory agent; 5. […] Presence of any psychiatric disorder that will affect ability to participate in study, including psychiatric impairment or current use of anti-psychotic medication; 3. […] Chronic illness known to affect glucose metabolism (e.g. Cushing syndrome, polycystic ovarian disorder, cystic fibrosis) or taking medications that affect glucose metabolism (e.g. steroids, metformin); 5. Inability to swallow pills; 6. Hematologic abnormalities at screening (anemia, leukopenia (particularly neutropenia), or thrombocytopenia); 7. […] Female participants of child-bearing age must not be pregnant and agree to use an effective form of birth control or be abstinent during the study period; 9. BMI >95% for age and sex. […] The enrollment cohorts were as follows: […] [table] […] Possible drug-related expected AEs included mild-moderate nausea/vomiting/abdominal pain and diarrhea, moderate headache, upper respiratory infections, a pump site infection, and mild anemia. […] Adverse events judges by masked study investigators as possibly or probably related to drug are showing in Table 3.", "data": [{"compound": "NCCCC(N)(C(=O)O)C(F)F", "note": "(stereo not shown) [eflornithine, 2,5-diamino-2-(difluoromethyl) pentanoic acid]", "values": [{"measurement": "Adverse events possibly or probably related to drug: Abdominal Pain", "setting": "125 mg/m^2 (n = 6)", "result": 1}, {"measurement": "Adverse events possibly or probably related to drug: Congestion", "setting": "125 mg/m^2 (n = 6)", "result": 0}, {"measurement": "Adverse events possibly or probably related to drug: Cough", "setting": "125 mg/m^2 (n = 6)", "result": 0}, {"measurement": "Adverse events possibly or probably related to drug: Diarrhea", "setting": "125 mg/m^2 (n = 6)", "result": 0}, {"measurement": "Adverse events possibly or probably related to drug: Dizziness", "setting": "125 mg/m^2 (n = 6)", "result": 0}, {"measurement": "Adverse events possibly or probably related to drug: Gastrointestinal (Total)", "setting": "125 mg/m^2 (n = 6)", "result": 1}, {"measurement": "Adverse events possibly or probably related to drug: Hematologic, Anemia", "setting": "125 mg/m^2 (n = 6)", "result": 0}, {"measurement": "Adverse events possibly or probably related to drug: Hot flashes associated with viral illness", "setting": "125 mg/m^2 (n = 6)", "result": 0}, {"measurement": "Adverse events possibly or probably related to drug: Nausea", "setting": "125 mg/m^2 (n = 6)", "result": 0}, {"measurement": "Adverse events possibly or probably related to drug: Nausea with IV placement", "setting": "125 mg/m^2 (n = 6)", "result": 0}, {"measurement": "Adverse events possibly or probably related to drug: Neurologic, Headache", "setting": "125 mg/m^2 (n = 6)", "result": 1}, {"measurement": "Adverse events possibly or probably related to drug: Other Viral Illness", "setting": "125 mg/m^2 (n = 6)", "result": 0}, {"measurement": "Adverse events possibly or probably related to drug: Other infectious/immune, Pump site infection", "setting": "125 mg/m^2 (n = 6)", "result": 0}, {"measurement": "Adverse events possibly or probably related to drug: Other, Hypoglycemia", "setting": "125 mg/m^2 (n = 6)", "result": 0}, {"measurement": "Adverse events possibly or probably related to drug: Other, Urticaria/anaphylaxis", "setting": "125 mg/m^2 (n = 6)", "result": 0}, {"measurement": "Adverse events possibly or probably related to drug: URI", "setting": "125 mg/m^2 (n = 6)", "result": 0}, {"measurement": "Adverse events possibly or probably related to drug: Vomiting", "setting": "125 mg/m^2 (n = 6)", "result": 1}, {"measurement": "Adverse events possibly or probably related to drug: Hematologic, Grade 1 Neutropenia", "setting": "125 mg/m^2 (n = 6)", "result": 1}, {"measurement": "Adverse events possibly or probably related to drug: Abdominal Pain", "setting": "250 mg/m^2 (n = 6)", "result": 0}, {"measurement": "Adverse events possibly or probably related to drug: Congestion", "setting": "250 mg/m^2 (n = 6)", "result": 0}, {"measurement": "Adverse events possibly or probably related to drug: Cough", "setting": "250 mg/m^2 (n = 6)", "result": 0}, {"measurement": "Adverse events possibly or probably related to drug: Diarrhea", "setting": "250 mg/m^2 (n = 6)", "result": 1}, {"measurement": "Adverse events possibly or probably related to drug: Dizziness", "setting": "250 mg/m^2 (n = 6)", "result": 0}, {"measurement": "Adverse events possibly or probably related to drug: Gastrointestinal (Total)", "setting": "250 mg/m^2 (n = 6)", "result": 1}, {"measurement": "Adverse events possibly or probably related to drug: Hematologic, Anemia", "setting": "250 mg/m^2 (n = 6)", "result": 0}, {"measurement": "Adverse events possibly or probably related to drug: Hot flashes associated with viral illness", "setting": "250 mg/m^2 (n = 6)", "result": 0}, {"measurement": "Adverse events possibly or probably related to drug: Nausea", "setting": "250 mg/m^2 (n = 6)", "result": 0}, {"measurement": "Adverse events possibly or probably related to drug: Nausea with IV placement", "setting": "250 mg/m^2 (n = 6)", "result": 0}, {"measurement": "Adverse events possibly or probably related to drug: Neurologic, Headache", "setting": "250 mg/m^2 (n = 6)", "result": 0}, {"measurement": "Adverse events possibly or probably related to drug: Other Viral Illness", "setting": "250 mg/m^2 (n = 6)", "result": 0}, {"measurement": "Adverse events possibly or probably related to drug: Other infectious/immune, Pump site infection", "setting": "250 mg/m^2 (n = 6)", "result": 0}, {"measurement": "Adverse events possibly or probably related to drug: Other, Hypoglycemia", "setting": "250 mg/m^2 (n = 6)", "result": 0}, {"measurement": "Adverse events possibly or probably related to drug: Other, Urticaria/anaphylaxis", "setting": "250 mg/m^2 (n = 6)", "result": 0}, {"measurement": "Adverse events possibly or probably related to drug: URI", "setting": "250 mg/m^2 (n = 6)", "result": 0}, {"measurement": "Adverse events possibly or probably related to drug: Vomiting", "setting": "250 mg/m^2 (n = 6)", "result": 0}, {"measurement": "Adverse events possibly or probably related to drug: Hematologic, Grade 1 Neutropenia", "setting": "250 mg/m^2 (n = 6)", "result": 0}, {"measurement": "Adverse events possibly or probably related to drug: Abdominal Pain", "setting": "500 mg/m^2 (n = 6)", "result": 0}, {"measurement": "Adverse events possibly or probably related to drug: Congestion", "setting": "500 mg/m^2 (n = 6)", "result": 0}, {"measurement": "Adverse events possibly or probably related to drug: Cough", "setting": "500 mg/m^2 (n = 6)", "result": 0}, {"measurement": "Adverse events possibly or probably related to drug: Diarrhea", "setting": "500 mg/m^2 (n = 6)", "result": 0}, {"measurement": "Adverse events possibly or probably related to drug: Dizziness", "setting": "500 mg/m^2 (n = 6)", "result": 0}, {"measurement": "Adverse events possibly or probably related to drug: Gastrointestinal (Total)", "setting": "500 mg/m^2 (n = 6)", "result": 0}, {"measurement": "Adverse events possibly or probably related to drug: Hematologic, Anemia", "setting": "500 mg/m^2 (n = 6)", "result": 0}, {"measurement": "Adverse events possibly or probably related to drug: Hot flashes associated with viral illness", "setting": "500 mg/m^2 (n = 6)", "result": 0}, {"measurement": "Adverse events possibly or probably related to drug: Nausea", "setting": "500 mg/m^2 (n = 6)", "result": 0}, {"measurement": "Adverse events possibly or probably related to drug: Nausea with IV placement", "setting": "500 mg/m^2 (n = 6)", "result": 0}, {"measurement": "Adverse events possibly or probably related to drug: Neurologic, Headache", "setting": "500 mg/m^2 (n = 6)", "result": 0}, {"measurement": "Adverse events possibly or probably related to drug: Other Viral Illness", "setting": "500 mg/m^2 (n = 6)", "result": 0}, {"measurement": "Adverse events possibly or probably related to drug: Other infectious/immune, Pump site infection", "setting": "500 mg/m^2 (n = 6)", "result": 0}, {"measurement": "Adverse events possibly or probably related to drug: Other, Hypoglycemia", "setting": "500 mg/m^2 (n = 6)", "result": 1}, {"measurement": "Adverse events possibly or probably related to drug: Other, Urticaria/anaphylaxis", "setting": "500 mg/m^2 (n = 6)", "result": 0}, {"measurement": "Adverse events possibly or probably related to drug: URI", "setting": "500 mg/m^2 (n = 6)", "result": 0}]}]}
